Source: patent publication US8183243B2, “Melanocortin receptor agonists” (LG Life Sciences Ltd., priority 2008, dated 2012)
Read-outs that look alike come from different tables or passages of the source.

Biological target: T1, MC4R (Homo sapiens, UniProt P32245)
T1 construct: expressed in transfected cells; host or cells: HEK (Human Embryonic Kidney) permanent expression cell line HEK MC4R-Luc, co-expressing CRE-luciferase
Experiment: MCR agonistic activity (luciferase assay / cAMP accumulation assay) on MC4R
Assay type: cell-based
Conditions: HEK cell lines expressing MC4R, not said which
Experimental: Physiological activity of the compounds of the present invention was assessed by measuring agonistic activity as well as binding activity for melanocortin receptors (MCR) according to methods A and B explained as follows.
As one of the methods to measure MCR agonistic activity of the compound according to the present invention, the expression level of a marker gene (for example, luciferase) which increases proportionally according to the increase of cAMP content in the cell, was measured.
First, permanent expression HEK (Human Embryonic Kidney) cell lines (HEK MC1R-Luc, MC3R-Luc, MC4R-Luc or MC5R-Luc) expressing the MCR gene of each subtype together with luciferase gene (CRE-LUC) under the control of CRE (cAMP Response Element) were constructed. The above cell lines were incubated in an incubator with 6% CO2 atmosphere at 37° C. using selection medium, DMEM(Dulbecco's Modified Eagles Medium) containing 10% heat-inactivated fetal bovine serum (Gibco/BRL), 100 unit/ml, penicillin (Gibco/BRL), 100 unit/ml streptomycin (Gibco/BRL), and 200 μg/ml geneticin (G418) (Gibco/BRL). When the cell covered 70% of total surface of the culture dish with 100 mm diameter, the culture dish was rinsed one time with 10 ml Phosphate Buffered Saline(PBS) free of Ca^++ and Mg^++, and then 3 ml PBS solution containing 0.05% trypsin and 0.53 mM EDTA was added thereto. After the trypsin/EDTA solution was removed, the cell lines were incubated in an thermostatic incubator for 1 minute at 37° C., and resuspended in 10 ml selection medium and centrifuged for 5 minutes at 1500 rpm. The supernatant was discarded and the settled cells were resuspended in 5 ml selection medium free of Phenol Red. The resulting cell-suspension was plated onto each well of 96-well culture plates for Luminometer(Costar) with a concentration of 5×10^4 cell in 100 μl culture medium for each well and incubated in the incubator with 6% CO2 atmosphere at 37° C. for 18 hours. With MCR agonists (Example compounds) diluted stepwise using the above culture medium, the cells were treated under the condition of the final DMSO concentration not exceeding 1%, and incubated for 5 hours in the atmosphere of 6% CO2 at 37° C. Then, 50 μl Bright-Glo (Promega) was added to each well. After allowing the treated cells to be at room temperature for 15 minutes, luminescence was measured for each well by using luminometer (Victor). The level of luminescence induced by the stepwise-diluted agonist was converted to relative % value to those by the treatment of 10 nM NDP-MSH. The EC50 indicates the concentration of each agonist for inducing 50% of maximal luminescence by each agonist and this value was measured by a statistical software (Prizm).
B. cAMP Accumulation Assay
As another method to measure MCR agonistic activity of the compound according to the present invention, an increase of cAMP amount in the cell was measured.
First, permanent expression HEK (Human Embryonic Kidney) cell lines (HEK MC1R-Luc, MC3R-Luc, MC4R-Luc or MCSR-Luc) expressing the MCR gene of each subtype were plated onto each well of 24-well culture plates for Luminometer(Costar) with a concentration of 2×10^5 cell in 1 ml culture medium for each well, and then incubated in an incubator with 6% CO2 atmosphere at 37° C. for 24 hours. The medium was removed from each well followed by rinsing with 0.5 ml cold DMEM one time. With MCR agonists (Example compounds) diluted stepwise using 200 μl DMEM including 500 μM IBMX (isobutylmethylxanthine), the cells were treated under the condition of the final DMSO concentration not exceeding 1%, and incubated for 30 minutes in the atmosphere of 6% CO2 at 37° C. Then, the cAMP amount in each cell was measured using Amersham cAMP assay Kit (TRK432).
More specifically, 14.4 μl of 6M PCA (60%) was added to each well, and allowed to be in ice for 10 minutes, and 200 μl sample was taken from each well and transferred to microcentrifuge tube. […]

[1] = method A (CRE-luciferase) or B (cAMP accumulation), read-out: EC50 value, agonistic activity to MC4R (range per group of Examples)
[2] = specific activities of representative compounds, method A or B, read-out: EC50

T1 sequence (P32245 whole entry, species assumed): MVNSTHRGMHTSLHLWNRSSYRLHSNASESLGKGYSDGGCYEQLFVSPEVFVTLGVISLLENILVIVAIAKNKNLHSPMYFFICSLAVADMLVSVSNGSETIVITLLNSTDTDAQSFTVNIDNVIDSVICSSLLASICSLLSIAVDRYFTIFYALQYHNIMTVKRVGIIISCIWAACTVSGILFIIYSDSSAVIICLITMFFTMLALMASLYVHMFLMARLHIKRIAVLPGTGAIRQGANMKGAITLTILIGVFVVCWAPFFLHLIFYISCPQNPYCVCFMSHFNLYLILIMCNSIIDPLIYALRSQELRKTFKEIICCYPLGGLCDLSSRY

Row | SMILES | EC50 [1] [nM] | EC50 [2] [nM]
1 | CN1CCN(C(=O)[C@H]2C[C@H](N(C(=O)[C@@H]3CCCO3)C3CCC(C)(C)CC3)CN2C(=O)[C@@H]2CN(C(C)(C)C)C[C@H]2c2ccc(F)cc2F)CC1 [Example 32, (2S)-N-{(3S,5R)-1-{[(3S,4R)-1-tert-butyl-4-(2,4-difluorophenyl)pyrrolidin-3-yl]carbonyl}-5-[(4-methylpiperazin-1-yl)carbonyl]pyrrolidin-3-yl}-N-(4,4-dimethylcyclohexyl)tetrahydrofuran-2-carboxamide] | 0.1 to 10 | 4
2 | CN1CCN(C(=O)[C@H]2C[C@H](N(C(=O)C(C)(C)C)[C@H]3CC[C@@H](C)CC3)CN2C(=O)[C@@H]2CN(C(C)(C)C)C[C@H]2c2ccc(F)cc2F)CC1 [Example 33, N-{(3S,5R)-1-{[(3S,4R)-1-tert-butyl-4-(2,4-difluorophenyl)pyrrolidin-3-yl]carbonyl}-5-[(4-methylpiperazin-1-yl)carbonyl]pyrrolidin-3-yl}-2,2-dimethyl-N-(cis-4-methylcyclohexyl)propanamide] | 10 to 100 | 
3 | CN1CCN(C(=O)[C@H]2C[C@H](N(C(=O)[C@@H]3CCCO3)C3CCC(C)(C)CC3)CN2C(=O)[C@@H]2CN(C(C)(C)C)C[C@H]2c2ccc(Cl)cc2)CC1 [Example 34, (2S)-N-{(3S,5R)-1-{[(3S,4R)-1-tert-butyl-4-(4-chlorophenyl)pyrrolidin-3-yl]carbonyl}-5-[(4-methylpiperazin-1-yl)carbonyl]pyrrolidin-3-yl}-N-(4,4-dimethylcyclohexyl)tetrahydrofuran-2-carboxamide] | 0.1 to 10 | 
4 | CN1CCN(C(=O)[C@H]2C[C@H](N(C(=O)C(C)(C)CO)[C@H]3CC[C@@H](C)CC3)CN2C(=O)[C@@H]2CN(C(C)(C)C)C[C@H]2c2ccc(Cl)cc2)CC1 [Example 36, N-{(3S,5R)-1-{[(3S,4R)-1-tert-butyl-4-(4-chlorophenyl)pyrrolidin-3-yl]carbonyl}-5-[(4-methylpiperazin-1-yl)carbonyl]pyrrolidin-3-yl}-3-hydroxy-2,2-dimethyl-N-(cis-4-methylcyclohexyl)propanamide] | 0.1 to 10 | 
5 | CC(=O)N([C@H]1C[C@H](C(=O)N2CCN(C)CC2)N(C(=O)[C@@H]2CN(C(C)(C)C)C[C@H]2c2ccc(Cl)cc2)C1)[C@H]1CC[C@@H](C)CC1 [Example 37, N-{(3S,5R)-1-{[(3S,4R)-1-tert-butyl-4-(4-chlorophenyl)pyrrolidin-3-yl]carbonyl}-5-[(4-methylpiperazin-1-yl)carbonyl]pyrrolidin-3-yl}-N-(cis-4-methylcyclohexyl)acetamide] | 0.1 to 10 | 
6 | CC(=O)N([C@H]1C[C@H](C(=O)N2CCN(C)CC2)N(C(=O)[C@@H]2CN(C(C)(C)C)C[C@H]2c2ccc(F)cc2F)C1)[C@H]1CC[C@@H](C)CC1 [Example 38, N-{(3S,5R)-1-{[(3S,4R)-1-tert-butyl-4-(2,4-difluorophenyl)pyrrolidin-3-yl]carbonyl}-5-[(4-methylpiperazin-1-yl)carbonyl]pyrrolidin-3-yl}-N-(cis-4-methylcyclohexyl)acetamide] | 0.1 to 10 | 
7 | CC(=O)N([C@H]1C[C@H](C(=O)N2CCN(C(C)C)CC2)N(C(=O)[C@@H]2CN(C(C)(C)C)C[C@H]2c2ccc(Cl)cc2)C1)[C@H]1CC[C@@H](C)CC1 [Example 39, N-{(3S,5R)-1-{[(3S,4R)-1-tert-butyl-4-(4-chlorophenyl)pyrrolidin-3-yl]carbonyl}-5-[(4-isopropylpiperazin-1-yl)carbonyl]pyrrolidin-3-yl}-N-(cis-4-methylcyclohexyl)acetamide] | 0.1 to 10 | 
8 | CN1CCN(C(=O)[C@@H]2C[C@H](N(C(=O)[C@@H]3CCCO3)[C@H]3CC[C@@H](C)CC3)CN2C(=O)[C@@H]2CN(c3ccc(Cl)nn3)C[C@H]2c2ccc(F)cc2F)CC1 [Example 44, (2S)-N-{(3S,5S)-1-{[(3S,4R)-4-(2,4-difluorophenyl)-1-(6-chloropyridazin-3-yl)pyrrolidin-3-yl]carbonyl}-5-[(4-methylpiperazin-1-yl)carbonyl]pyrrolidin-3-yl}-N-(cis-4-methylcyclohexyl)tetrahydrofuran-2-carboxamide] | 10 to 100 | 
9 | CN1CCN(C(=O)[C@@H]2C[C@H](N(C(=O)[C@@H]3CCCO3)C3CCC(C)(C)CC3)CN2C(=O)[C@@H]2CN(c3cccnn3)C[C@H]2c2ccc(F)cc2F)CC1 [Example 45] | 0.1 to 10 | 8
10 | CN1CCN(C(=O)[C@@H]2C[C@H](N(C(=O)[C@@H]3CCCO3)[C@H]3CC[C@@H](C)CC3)CN2C(=O)[C@@H]2CN(c3ccccc3)C[C@H]2c2ccc(Cl)cc2)CC1 [Example 46, (2S)-N-{(3S,5S)-1-{[(3S,4R)-4-(4-chlorophenyl)-1-phenylpyrrolidin-3-yl]carbonyl}-5-[(4-methylpiperazin-1-yl)carbonyl]pyrrolidin-3-yl}-N-(cis-4-methylcyclohexyl)tetrahydrofuran-2-carboxamide] | 10 to 100 | 

Results, then the compound that gave them:

Row | EC50 [1] [nM] | EC50 [2] [nM] | SMILES
11 | 10 to 100 |  | CN1CCN(C(=O)[C@@H]2C[C@H](N(C(=O)[C@@H]3CCCO3)C3CCC(F)(F)CC3)CN2C(=O)[C@@H]2CN(C(C)(C)C)C[C@H]2c2ccc(Cl)cc2)CC1 [Example 31, (2S)-N-{(3S,5S)-1-{[(3S,4R)-1-tert-butyl-4-(4-chlorophenyl)pyrrolidin-3-yl]carbonyl}-5-[(4-methylpiperazin-1-yl)carbonyl]pyrrolidin-3-yl}-N-(4,4-difluorocyclohexyl)tetrahydrofuran-2-carboxamide]
12 | 0.1 to 10 | 3 | CN1CCN(C(=O)[C@@H]2C[C@H](N(C(=O)[C@@H]3CCCO3)C3CCC(C)(C)CC3)CN2C(=O)[C@@H]2CN(C3CCOCC3)C[C@H]2c2ccc(Cl)cc2)CC1 [Example 41, (2S)-N-{(3S,5S)-1-{[(3S,4R)-4-(4-chlorophenyl)-1-(tetrahydro-2H-pyran-4-yl)pyrrolidin-3-yl]carbonyl}-5-[(4-methylpiperazin-1-yl)carbonyl]pyrrolidin-3-yl}-N-(4,4-dimethylcyclohexyl)tetrahydrofuran-2-carboxamide]
13 | 10 to 100 |  | CN1CCN(C(=O)[C@@H]2C[C@H](N(C(=O)[C@@H]3CCCO3)C3CCC(C)(C)CC3)CN2C(=O)[C@@H]2CN(C3CC3)C[C@H]2c2ccc(Cl)cc2)CC1 [Example 42, (2S)-N-{(3S,5S)-1-{[(3S,4R)-4-(4-chlorophenyl)-1-cyclopropylpyrrolidin-3-yl]carbonyl}-5-[(4-methylpiperazin-1-yl)carbonyl]pyrrolidin-3-yl}-N-(4,4-dimethylcyclohexyl)tetrahydrofuran-2-carboxamide]
14 | 0.1 to 10 | 10 | Cc1ccc(N2C[C@@H](C(=O)N3C[C@@H](N(C(=O)[C@@H]4CCCO4)C4CCC(C)(C)CC4)C[C@H]3C(=O)N3CCN(C)CC3)[C@H](c3ccc(Cl)cc3)C2)nn1 [Example 43, (2S)-N-{(3S,5S)-1-{[(3S,4R)-4-(4-chlorophenyl)-1-(6-methylpyridazin-3-yl)pyrrolidin-3-yl]carbonyl}-5-[(4-methylpiperazin-1-yl)carbonyl]pyrrolidin-3-yl}-N-(4,4-dimethylcyclohexyl)tetrahydrofuran-2-carboxamide]
